Experimental data as given in PubChem BioAssay AID1919010 (Molecular Pharmacology Branch, DTP, NCI, 2023).

System: Hs578T complex spheroid growth, percent test/control
Test: Anticancer human tumor Hs578T cell line growth inhibition [AhR];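 also: luminescent viability signal as a proxy for spheroid growth; spheroids exposed to agents for one week after three days of growth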
Conditions: for IC50: curve of first compound; for viability, T/C: stronger effect = lower value
Procedure, shortened: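 Spheroids combined tumor cells with HUVEC endothelial cells and human MSCs as stroma. AhR antagonists were paired with standard or investigational drugs, each dosed in half-log steps down from near clinical Cmax, or from 10 microM where Cmax was unknown.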

[1] = second compound 0.1 µM, first compound 0.0316 µM
[2] = second compound 0.1 µM, first compound 0.1 µM
[3] = second compound 0.1 µM, first compound 0.316 µM
[4] = second compound 0.1 µM, first compound 1 µM
[5] = second compound 0.1 µM, first compound 3.16 µM
[6] = second compound 0.1 µM, first compound 10 µM
[7] = second compound 0.316 µM, first compound 0.0316 µM
[8] = second compound 0.316 µM, first compound 0.1 µM
[9] = second compound 0.316 µM, first compound 0.316 µM
[10] = second compound 0.316 µM, first compound 1 µM
[11] = second compound 0.316 µM, first compound 3.16 µM
[12] = second compound 0.316 µM, first compound 10 µM
[13] = second compound 1 µM, first compound 0.0316 µM
[14] = second compound 1 µM, first compound 0.1 µM
[15] = second compound 1 µM, first compound 0.316 µM
[16] = second compound 1 µM, first compound 1 µM
[17] = second compound 1 µM, first compound 3.16 µM
[18] = second compound 1 µM, first compound 10 µM
[19] = second compound 3.16 µM, first compound 0.0316 µM
[20] = second compound 3.16 µM, first compound 0.1 µM
[21] = second compound 3.16 µM, first compound 0.316 µM
[22] = second compound 3.16 µM, first compound 1 µM
[23] = second compound 3.16 µM, first compound 3.16 µM
[24] = second compound 3.16 µM, first compound 10 µM
[25] = second compound 10 µM, first compound 0.0316 µM
[26] = second compound 10 µM, first compound 0.1 µM
[27] = second compound 10 µM, first compound 0.316 µM
[28] = second compound 10 µM, first compound 1 µM
[29] = second compound 10 µM, first compound 3.16 µM
[30] = second compound 10 µM, first compound 10 µM

## NS(=O)(=O)OCC1CC(n2ccc3c(NC4CCc5ccccc54)ncnc32)CC1O (stereo not given) + Cc1ccccc1N=Nc1ccc(NC(=O)c2ccnn2C)c(C)c1
Second compound 0.1 µM
  IC50: 965 nM
Second compound 0.316 µM
  IC50: 1470 nM
Second compound 1 µM
  IC50: 1520 nM
Second compound 3.16 µM
  IC50: 862 nM
Second compound 10 µM
  IC50: 105 nM
[1]
  viability, T/C: 104%
[2]
  viability, T/C: 82.5%
[3]
  viability, T/C: 78.1%
[4]
  viability, T/C: 45.4%
[5]
  viability, T/C: 34.6%
[6]
  viability, T/C: 30.2%
[7]
  viability, T/C: 108%
[8]
  viability, T/C: 78.2%
[9]
  viability, T/C: 71.2%
[10]
  viability, T/C: 59%
[11]
  viability, T/C: 36.5%
[12]
  viability, T/C: 33.7%
[13]
  viability, T/C: 97.8%
[14]
  viability, T/C: 74.8%
[15]
  viability, T/C: 83.1%
[16]
  viability, T/C: 57.7%
[17]
  viability, T/C: 35.3%
[18]
  viability, T/C: 34.7%
[19]
  viability, T/C: 94.9%
[20]
  viability, T/C: 71%
[21]
  viability, T/C: 67.9%
[22]
  viability, T/C: 45.5%
[23]
  viability, T/C: 36.5%
[24]
  viability, T/C: 28%
[25]
  viability, T/C: 59.4%
[26]
  viability, T/C: 47.9%
[27]
  viability, T/C: 43.8%
[28]
  viability, T/C: 37.5%
[29]
  viability, T/C: 30.2%
[30]
  viability, T/C: 25.8%

## CC1COCCN1c1cc(-c2ccnn2C)c2ccnc(-c3ccn[nH]3)c2n1 (stereo not given) + Cc1cncc(-c2nc(NCCc3c[nH]c4ccccc34)c3ncn(C(C)C)c3n2)c1
Second compound 0.1 µM
  IC50: 589 nM
Second compound 0.316 µM
  IC50: 662 nM
Second compound 1 µM
  IC50: 342 nM
Second compound 3.16 µM
  IC50: 104 nM
Second compound 10 µM
  IC50: < 3.16 nM
Second compound 0.1 µM, first compound 0.00316 µM
  viability, T/C: 109%
Second compound 0.1 µM, first compound 0.01 µM
  viability, T/C: 117%
[1]
  viability, T/C: 109%
[2]
  viability, T/C: 96.8%
[3]
  viability, T/C: 55.8%
[4]
  viability, T/C: 45.1%
Second compound 0.316 µM, first compound 0.00316 µM
  viability, T/C: 108%
Second compound 0.316 µM, first compound 0.01 µM
  viability, T/C: 116%
[7]
  viability, T/C: 109%
[8]
  viability, T/C: 91.8%
[9]
  viability, T/C: 57.2%
[10]
  viability, T/C: 46%
Second compound 1 µM, first compound 0.00316 µM
  viability, T/C: 109%
Second compound 1 µM, first compound 0.01 µM
  viability, T/C: 116%
[13]
  viability, T/C: 103%
[14]
  viability, T/C: 81.7%
[15]
  viability, T/C: 50.6%
[16]
  viability, T/C: 38.5%
Second compound 3.16 µM, first compound 0.00316 µM
  viability, T/C: 62.9%
Second compound 3.16 µM, first compound 0.01 µM
  viability, T/C: 65%
[19]
  viability, T/C: 58.8%
[20]
  viability, T/C: 51.3%
[21]
  viability, T/C: 35.1%
[22]
  viability, T/C: 37.7%
Second compound 10 µM, first compound 0.00316 µM
  viability, T/C: 4.51%
Second compound 10 µM, first compound 0.01 µM
  viability, T/C: 3.84%
[25]
  viability, T/C: 4.82%
[26]
  viability, T/C: 4.52%
[27]
  viability, T/C: 4.47%
[28]
  viability, T/C: 7.62%

## O=C(C=Cn1cnc(-c2cc(C(F)(F)F)cc(C(F)(F)F)c2)n1)NNc1cnccn1 + CC(CO)NC(=O)c1cc(-c2ccc(Cl)cc2)nn(-c2cnn(C)c2)c1=O
Second compound 0.1 µM
  IC50: 305 nM
Second compound 0.316 µM
  IC50: 314 nM
Second compound 1 µM
  IC50: 352 nM
Second compound 3.16 µM
  IC50: 333 nM
Second compound 10 µM
  IC50: 300 nM
Second compound 0.1 µM, first compound 0.00949 µM
  viability, T/C: 102%
Second compound 0.1 µM, first compound 0.03 µM
  viability, T/C: 108%
Second compound 0.1 µM, first compound 0.0949 µM
  viability, T/C: 89.4%
Second compound 0.1 µM, first compound 0.3 µM
  viability, T/C: 51.8%
Second compound 0.1 µM, first compound 0.949 µM
  viability, T/C: 19.2%
Second compound 0.1 µM, first compound 3 µM
  viability, T/C: 17.2%
Second compound 0.316 µM, first compound 0.00949 µM
  viability, T/C: 109%
Second compound 0.316 µM, first compound 0.03 µM
  viability, T/C: 103%
Second compound 0.316 µM, first compound 0.0949 µM
  viability, T/C: 87.7%
Second compound 0.316 µM, first compound 0.3 µM
  viability, T/C: 53.3%
Second compound 0.316 µM, first compound 0.949 µM
  viability, T/C: 19.6%
Second compound 0.316 µM, first compound 3 µM
  viability, T/C: 18.4%
Second compound 1 µM, first compound 0.00949 µM
  viability, T/C: 107%
Second compound 1 µM, first compound 0.03 µM
  viability, T/C: 102%
Second compound 1 µM, first compound 0.0949 µM
  viability, T/C: 94.8%
Second compound 1 µM, first compound 0.3 µM
  viability, T/C: 55.1%
Second compound 1 µM, first compound 0.949 µM
  viability, T/C: 20.8%
Second compound 1 µM, first compound 3 µM
  viability, T/C: 18.6%
Second compound 3.16 µM, first compound 0.00949 µM
  viability, T/C: 108%
Second compound 3.16 µM, first compound 0.03 µM
  viability, T/C: 100%
Second compound 3.16 µM, first compound 0.0949 µM
  viability, T/C: 91.7%
Second compound 3.16 µM, first compound 0.3 µM
  viability, T/C: 51.5%
Second compound 3.16 µM, first compound 0.949 µM
  viability, T/C: 28.2%
Second compound 3.16 µM, first compound 3 µM
  viability, T/C: 21.9%
Second compound 10 µM, first compound 0.00949 µM
  viability, T/C: 97%
Second compound 10 µM, first compound 0.03 µM
  viability, T/C: 102%
Second compound 10 µM, first compound 0.0949 µM
  viability, T/C: 100%
Second compound 10 µM, first compound 0.3 µM
  viability, T/C: 50%
Second compound 10 µM, first compound 0.949 µM
  viability, T/C: 22.6%
Second compound 10 µM, first compound 3 µM
  viability, T/C: 24.4%

## COc1cccc2c1C(=O)c1c(O)c3c(c(O)c1C2=O)CC(O)(C(=O)CO)CC3OC1CC(N)C(O)C(C)O1 (stereo not given) + Cc1cncc(-c2nc(NCCc3c[nH]c4ccccc34)c3ncn(C(C)C)c3n2)c1
Second compound 0.1 µM
  IC50: 561 nM
Second compound 0.316 µM
  IC50: 480 nM
Second compound 1 µM
  IC50: 363 nM
Second compound 3.16 µM
  IC50: 315 nM
Second compound 10 µM
  IC50: < 31.6 nM
[1]
  viability, T/C: 90.3%
[2]
  viability, T/C: 87.7%
[3]
  viability, T/C: 73.5%
[4]
  viability, T/C: 26.6%
[5]
  viability, T/C: 3.41%
[6]
  viability, T/C: 3.51%
[7]
  viability, T/C: 97.1%
[8]
  viability, T/C: 87.5%
[9]
  viability, T/C: 68.2%
[10]
  viability, T/C: 19.3%
[11]
  viability, T/C: 3.19%
[12]
  viability, T/C: 3.19%
[13]
  viability, T/C: 92.9%
[14]
  viability, T/C: 80.5%
[15]
  viability, T/C: 56.7%
[16]
  viability, T/C: 12.3%
[17]
  viability, T/C: 2.37%
[18]
  viability, T/C: 2.76%
[19]
  viability, T/C: 62.1%
[20]
  viability, T/C: 52.9%
[21]
  viability, T/C: 50.1%
[22]
  viability, T/C: 5.82%
[23]
  viability, T/C: 1.65%
[24]
  viability, T/C: 1.75%
[25]
  viability, T/C: 6.81%
[26]
  viability, T/C: 6.99%
[27]
  viability, T/C: 11.9%
[28]
  viability, T/C: 0.55%
[29]
  viability, T/C: 0.74%
[30]
  viability, T/C: 0.83%
